# Reference: patent US11912693B2, “Compounds for modulating S1P1 activity and methods of using the same” (TREVENA, INC., priority 2017, dated 2024)
# Columns and labels:
# [1] = molecular target: T1, human sphingosine-1-phosphate receptor 1 (S1P1) (Homo sapiens (Human), UniProt P21453); test: Inhibition of cAMP production (HTRF cAMP HiRange), S1P1 CHO-K1 cells; type: cell-based; conditions: for Emax: CHO-K1, read-out: hS1P1 cAMP SPAN; for hS1P1 cAMP pEC50: inhibition of cAMP production, S1P1 CHO-K1 cells
# Procedure, shortened: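 CHO-K1 cells stably co-expressing human S1P1 (C-terminal Prolink tag) and EA-β-arrestin2 were grown in AssayComplete Media 6 at 37° C. and 5% CO2, plated, and incubated overnight. Agonist-driven inhibition of intracellular cAMP was read by TR-FRET with the HTRF cAMP HiRange kit on a PheraStar reader. Potency is pEC50, and efficacy (SPAN) is normalized to fingolimod.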
# Target sequence in this assay (P21453 whole entry, looked up): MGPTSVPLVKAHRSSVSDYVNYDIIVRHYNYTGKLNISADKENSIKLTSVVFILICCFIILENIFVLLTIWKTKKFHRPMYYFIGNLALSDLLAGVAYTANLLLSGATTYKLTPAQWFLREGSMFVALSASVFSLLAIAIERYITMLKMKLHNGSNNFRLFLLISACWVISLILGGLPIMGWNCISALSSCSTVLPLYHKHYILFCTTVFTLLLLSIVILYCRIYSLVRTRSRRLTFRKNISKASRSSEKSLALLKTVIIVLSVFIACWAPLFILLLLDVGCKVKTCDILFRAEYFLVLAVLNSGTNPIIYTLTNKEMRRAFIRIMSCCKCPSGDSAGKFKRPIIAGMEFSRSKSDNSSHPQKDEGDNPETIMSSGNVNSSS
# [2] = molecular target: T1, human sphingosine-1-phosphate receptor 1 (S1P1); test: β-Arrestin2 recruitment assay (PathHunter), S1P1 CHO-K1 cells; type: cell-based; conditions: for Emax: CHO-K1, read-out: hS1P1 B-arrestin2 SPAN; for hS1P1 B-arrestin2 pEC50: β-arrestin2 recruitment, S1P1 CHO-K1 cells
# Procedure, shortened: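 Enzyme-fragment complementation read-out: agonist-driven β-arrestin2 binding to ProLink-tagged human S1P1 in stable CHO-K1 cells restores β-galactosidase, measured 1 h at room temperature after a 60 min 37° C. compound incubation. Potency as pEC50, efficacy relative to fingolimod (SPAN).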
# Target sequence in this assay (P21453 whole entry, looked up): as above
# Target sequence in this assay (P32121 whole entry partner, looked up): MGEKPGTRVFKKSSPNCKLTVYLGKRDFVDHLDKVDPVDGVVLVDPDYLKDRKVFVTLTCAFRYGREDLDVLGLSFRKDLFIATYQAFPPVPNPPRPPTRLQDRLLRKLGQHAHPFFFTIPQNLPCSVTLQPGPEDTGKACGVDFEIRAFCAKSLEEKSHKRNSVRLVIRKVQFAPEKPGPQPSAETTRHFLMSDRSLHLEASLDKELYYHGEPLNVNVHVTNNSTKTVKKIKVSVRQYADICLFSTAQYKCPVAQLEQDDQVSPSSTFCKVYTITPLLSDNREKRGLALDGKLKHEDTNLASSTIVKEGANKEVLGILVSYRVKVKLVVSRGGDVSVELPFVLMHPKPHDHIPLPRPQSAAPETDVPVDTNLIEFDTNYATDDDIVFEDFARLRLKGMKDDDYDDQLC
# [3] = molecular target: human sphingosine-1-phosphate receptor 2 (S1P2) (Homo sapiens (Human), UniProt O95136); test: Inositol monophosphate production (IP-one TB kit), S1P2 CHO-K1 cells; type: cell-based; conditions: for hS1P2 IP-one pEC50: inositol monophosphate accumulation
# Experimental: (§1) Stable clonal Chinese hamster ovary K1 (CHO-K1) cells co-expressing EA-β-arrestin2 and the human sphingosine-1-phosphate receptor 2 (NM_004230.3, S1P2), human sphingosine-1-phosphate receptor 3 (NM_005226, S1P3) and sphingosine-1-phosphate receptor 5 (NM_001166215.1, S1P5) with a C-terminal Prolink™ tag were purchased from DiscoverX corporation (S1P2: Cat #93-0256C2, S1P3: Cat #93-0217C2, S1P5: Cat #93-0583C2).
# (§2) Cell lines were cultured in AssayComplete™ Media 6 (DiscoverX Corporation, Cat #: 920018GF2) at 37° C. and 5% CO2 in a humidified CO2 and temperature-controlled incubator. To begin assay plating, cells were washed with dulbecco's phosphate buffered saline (CellGro, Cat #: 21-031-CV) and lifted from the culturing flask by incubation (37° C., 5 min) with CellStripper (Cellgro, Cat #: 25-056-CI). […] Plated cells were incubated overnight at 37° C. and 5% CO2 in a humidified CO2 and temperature-controlled incubator.
# S1P2 Agonist-promoted G-protein responses were determined by measuring changes in intracellular inositol monophosphate using the IP-one TB kit (CisBio, Cat #: 62IPAPEJ) based on time-resolved fluorescence resonance energy transfer (TR-FRET) technology. AssayComplete™ Cell Plating 2 Reagent was removed and replaced with 1× IP-one stimulation buffer (as per manufacturer's instructions) along with test or control compounds at the desired concentrations. Following a 60-minute incubation at 37° C. and 5% CO2 in a humidified CO2 and temperature-controlled incubator, the components of the IP-one TB kit were added as per the manufacturer's instructions. After an hour incubation at room temperature, plates were analyzed by a BMG PheraStar microplate reader.
# (§3) The tables below include the efficacy of the compound as compared to a positive control, referred to as “SPAN”. These values are normalized to fingolimod, a known agonist of the sphingosine-1-phosphate 3 and 5 receptor or CYM5520, a known agonist of the sphingosine-1-phosphate 2 receptor. The tables also include potency values (pEC50) for modulating discrete receptor-mediated activities (inhibition of cAMP production or inositol monophosphate accumulation).
# [4] = molecular target: human sphingosine-1-phosphate receptor 3 (S1P3) (Homo sapiens (Human), UniProt Q99500); test: Inhibition of cAMP production (HTRF), S1P3 CHO-K1 cells; type: cell-based; conditions: for hS1P3 cAMP pEC50: inhibition of cAMP production
# Experimental: as §1, §2
# (§4) S1P3 and S1P5 Agonist-promoted G-protein responses were determined by measuring changes in intracellular cAMP using the HTRF® cAMP HiRange kit (CisBio, Cat #: 62AM6PEJ) based on time-resolved fluorescence resonance energy transfer (TR-FRET) technology. […] Following a 30-minute room temperature incubation the components of the cAMP HiRange kit were added as per the manufacturer's instructions. After an hour incubation at room temperature, plates were analyzed by a BMG PheraStar microplate reader.
# as §3
# [5] = molecular target: sphingosine-1-phosphate receptor 5 (S1P5) (Homo sapiens (Human), UniProt Q9H228); test: Inhibition of cAMP production (HTRF), S1P5 CHO-K1 cells; type: cell-based; conditions: for hS1P5 cAMP pEC50: inhibition of cAMP production
# Experimental: as §1, §2, §4, §3
# [6] = system: paclitaxel induced peripheral neuropathy; test: Reversal of allodynia induced by paclitaxel in mice (s.c. or p.o., von Frey frequency method); type: in vivo, c57bl/6 mice; conditions: Mus musculus, po, 1 h, 3 mg/kg p.o., tested 60 min after dosing, read-out: Screen @ 3 mg/kg po (% MPE)
# Procedure, shortened: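 Neuropathy was induced in mice by paclitaxel (6 mg/kg i.p., days 1, 3, 5, 7) or oxaliplatin (4 mg/kg i.p., days 1-5), with re-testing about 14 days later. Compounds were given s.c. (tested at 30 min) or p.o. (tested at 60 min; paclitaxel only). A 0.4 g von Frey filament was applied ten times per paw, and % non-response was converted to % MPE.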
# [7] = efficacy (SPAN) normalized to fingolimod
# [8] = efficacy normalized to fingolimod
# human sphingosine-1-phosphate receptor 3 (S1P3), sequence (Q99500 whole entry): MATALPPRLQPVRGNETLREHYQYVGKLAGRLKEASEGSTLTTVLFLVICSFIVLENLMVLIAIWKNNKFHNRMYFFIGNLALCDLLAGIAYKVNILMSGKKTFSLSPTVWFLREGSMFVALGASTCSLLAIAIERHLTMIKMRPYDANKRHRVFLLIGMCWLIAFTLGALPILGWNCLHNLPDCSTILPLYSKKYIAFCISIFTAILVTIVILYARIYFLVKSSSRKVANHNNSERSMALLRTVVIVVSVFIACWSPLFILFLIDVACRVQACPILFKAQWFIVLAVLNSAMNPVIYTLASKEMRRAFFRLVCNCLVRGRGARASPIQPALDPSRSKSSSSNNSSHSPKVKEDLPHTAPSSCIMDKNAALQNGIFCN
# human sphingosine-1-phosphate receptor 2 (S1P2), sequence (O95136 whole entry): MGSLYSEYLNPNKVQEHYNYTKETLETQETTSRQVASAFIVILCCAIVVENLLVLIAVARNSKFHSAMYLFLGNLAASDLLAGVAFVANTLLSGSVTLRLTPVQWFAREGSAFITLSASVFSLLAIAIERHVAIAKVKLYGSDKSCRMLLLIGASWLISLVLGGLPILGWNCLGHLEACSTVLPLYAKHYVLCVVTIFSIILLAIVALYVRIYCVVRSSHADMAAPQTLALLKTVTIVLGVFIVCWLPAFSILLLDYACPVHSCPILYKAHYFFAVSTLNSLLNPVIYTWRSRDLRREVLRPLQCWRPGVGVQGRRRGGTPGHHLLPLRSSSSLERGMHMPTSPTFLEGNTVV
# sphingosine-1-phosphate receptor 5 (S1P5), sequence (Q9H228 whole entry): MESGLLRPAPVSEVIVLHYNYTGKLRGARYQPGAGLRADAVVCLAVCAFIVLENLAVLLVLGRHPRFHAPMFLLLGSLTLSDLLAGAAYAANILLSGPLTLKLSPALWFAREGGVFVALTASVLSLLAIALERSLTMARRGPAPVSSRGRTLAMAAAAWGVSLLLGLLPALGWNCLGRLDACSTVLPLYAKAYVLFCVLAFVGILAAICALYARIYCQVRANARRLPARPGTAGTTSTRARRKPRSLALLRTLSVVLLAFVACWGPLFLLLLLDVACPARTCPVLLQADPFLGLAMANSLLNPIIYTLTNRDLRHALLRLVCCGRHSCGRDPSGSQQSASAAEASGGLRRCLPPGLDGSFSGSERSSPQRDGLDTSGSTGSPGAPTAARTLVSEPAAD
Structure (SMILES),hS1P1 cAMP pEC50 [1],hS1P1 B-arrestin2 pEC50 [2],hS1P2 IP-one pEC50 [3],hS1P3 cAMP pEC50 [4],inhibition in vivo at 3 mg/kg [6],further results
"C=CCNc1ccc(-c2nc(-c3ccc4[nH]ncc4c3)no2)cc1C#N [Compound 141, 5-(3-(1H-indazol-5-yl)-1,2,4-oxadiazol-5-yl)-2-(allylamino)benzonitrile]",>6.5,>5,<5.0,>5.0,,"Emax [1, 7]: > 75%; Emax [2, 7]: > 75%; Emax ([3]; CHO-K1, efficacy normalized to CYM5520, read-out: hS1P2 IP-one SPAN): < 50%; Emax ([4]; CHO-K1, efficacy normalized to fingolimod, read-out: hS1P3 cAMP SPAN): > 50%; Emax ([5]; CHO-K1, efficacy normalized to fingolimod, read-out: hS1P5 cAMP SPAN): > 50%; hS1P5 cAMP pEC50 [5]: >5.0"
"CCC1(CC)CC(=O)c2cc(-c3nc(-c4ccc5[nH]ncc5c4)no3)ccc2O1 [Compound 152, 6-(3-(1H-indazol-5-yl)-1,2,4-oxadiazol-5-yl)-2,2-diethylchroman-4-one]",<6.5,>5,<5.0,<5.0,,"hS1P1 cAMP SPAN [1, 7]: >75; hS1P1 B-arrestin2 SPAN [2, 7]: >75; hS1P2 IP-one SPAN ([3]; efficacy normalized to CYM5520): <50; hS1P3 cAMP SPAN [4, 8]: <50; hS1P5 cAMP SPAN [5, 8]: <50; hS1P5 cAMP pEC50 [5]: <5.0"
"CC(C)n1nnc2cc(-c3nc4c(o3)Cc3ccccc3-4)ccc21 [Compound 219, 5-{8H-indeno[1,2-d][1,3]oxazol-2-yl}-1-(propan-2-yl)-1H-1,2,3-benzotriazole]",>6.5,>5,>5.0,<5.0,,hS1P5 cAMP pEC50 [5]: <5.0
"COc1cnccc1-c1nc(-c2ccc3c(ccn3C(C)C)c2)no1 [Compound 391, 3-(1-isopropyl-1H-indol-5-yl)-5-(3-methoxypyridin-4-yl)-1,2,4-oxadiazole]",>6.5,>5,>5.0,>5.0,,hS1P5 cAMP pEC50 [5]: >5.0
"COc1ccccc1-c1nc(-c2ccc3c(ccn3C(C)C)c2)no1 [Compound 398, 3-(1-isopropyl-1H-indol-5-yl)-5-(2-methoxyphenyl)-1,2,4-oxadiazole]",>6.5,>5,<5.0,<5.0,,hS1P5 cAMP pEC50 [5]: <5.0
"CC(C)Nc1ccc(-c2nc(-c3ccc4oc(=O)[nH]c4c3)no2)cc1C#N [Compound 422, 2-(isopropylamino)-5-(3-(2-oxo-2,3-dihydrobenzo[d]oxazol-5-yl)-1,2,4-oxadiazol-5-yl)benzonitrile]",>6.5,>5,>5.0,>5.0,,
"CCC1(CC)CC(=O)c2cc(-c3nc(-c4ccc5[nH]c(=O)oc5c4)no3)ccc2O1 [Compound 445, 6-(5-(2,2-diethyl-4-oxochroman-6-yl)-1,2,4-oxadiazol-3-yl)benzo[d]oxazol-2(3H)-one]",>6.5,>5,>5.0,<5.0,,
"CC(C)Nc1ccc(-c2nc(-c3ccc4c(c3)NC(=O)C4)no2)cc1C#N [Compound 496, 2-(isopropylamino)-5-(3-(2-oxoindolin-6-yl)-1,2,4-oxadiazol-5-yl)benzonitrile]",>6.5,>5,<5.0,<5.0,,
"N#Cc1cc(-c2nnc(-c3cccc4[nH]cnc34)o2)ccc1NCC(F)F [Compound 586, 5-[5-(1H-1,3-benzodiazol-4-yl)-1,3,4-oxadiazol-2-yl]-2-[(2,2-difluoroethyl)amino]benzonitrile]",>6.5,>5,,,< 50%,
"N#Cc1cc(-c2nnc(-c3ccc4[nH]cnc4c3)o2)ccc1NC1CC1 [Compound 598, 5-[5-(1H-1,3-benzodiazol-5-yl)-1,3,4-oxadiazol-2-yl]-2-(cyclopropylamino) benzonitrile]",>6.5,>5,,,< 50%,"Emax [1, 7]: > 75%; Emax [2, 7]: > 75%"
"N#Cc1cc(-c2nnc(-c3ccc4[nH]cnc4c3)o2)ccc1NC(CF)CF [Compound 600, 5-[5-(1H-1,3-benzodiazol-5-yl)-1,3,4-oxadiazol-2-yl]-2-[(1,3-difluoropropan-2-yl)amino]benzonitrile]",>6.5,>5,,,< 50%,"Emax [1, 7]: > 75%; Emax [2, 7]: > 75%"
"COc1cnccc1-c1nc(-c2ccc3c(c2)nnn3C(C)C)no1 [Compound 606, 3-(1-isopropyl-1H-benzo[d][1,2,3]triazol-5-yl)-5-(3-methoxypyridin-4-yl)-1,2,4-oxadiazole]",>6.5,>5,,,> 50%,"Emax [1, 7]: > 75%; Emax [2, 7]: > 75%"
"COc1ncccc1-c1nc(-c2ccc3c(c2)nnn3C(C)C)no1 [Compound 607, 3-(1-isopropyl-1H-benzo[d][1,2,3]triazol-5-yl)-5-(2-methoxypyridin-3-yl)-1,2,4-oxadiazole]",>6.5,>5,,,> 50%,"Emax [1, 7]: > 75%; Emax [2, 7]: > 75%"
"CC(C)n1nnc2cc(-c3noc(-c4cccc5c4CCC5=O)n3)ccc21 [Compound 608, 4-{3-[1-(propan-2-yl)-1H-1,2,3-benzotriazol-5-yl]-1,2,4-oxadiazol-5-yl}-2,3-dihydro-1H-inden-1-one]",>6.5,>5,,,< 50%,
"CC(C)n1nnc2cc(-c3noc(-c4ccccc4N(C)C)n3)ccc21 [Compound 615, N,N-dimethyl-2-{3-[1-(propan-2-yl)-1H-1,2,3-benzotriazol-5-yl]-1,2,4-oxadiazol-5-yl}aniline]",>6.5,>5,,,> 50%,
"CC(C)n1nnc2cc(-c3noc(-c4cccc5c4CCC5O)n3)ccc21 (stereo not shown) [Compound 636, 4-{3-[1-(propan-2-yl)-1H-1,2,3-benzotriazol-5-yl]-1,2,4-oxadiazol-5-yl}-2,3-dihydro-1H-inden-1-ol]",>6.5,>5,,,< 50%,
"CC(C)Nc1ccc(-c2nnc(-c3ccc4oc(=O)[nH]c4c3)o2)cc1C#N [Compound 637, 5-[5-(2-oxo-2,3-dihydro-1,3-benzoxazol-5-yl)-1,3,4-oxadiazol-2-yl]-2-[(propan-2-yl)amino]benzonitrile]",>6.5,>5,,,> 50%,
